“Also recorded” adds a separate entry of the source.
Assays:
[1] = system: hairless mouse (HR-1, female); assay: Vasodilating (blood circulation improving) effect, red spot on auricles, visual evaluation; format: in vivo; settings: for blood circulation promoting action, intensity and sustainability (conclusion): auricle red spot test, 1 wt % and 5 wt %
From the text: The vasodilating effects (blood circulation improving effect) of capsiate and capsaicin were compared using auricles of a hairless mouse. A sample was applied to the right ear of a hairless mouse (HR-1, female) and a control was applied to the left ear thereof, and the development of a red spot was visually evaluated. (1) Capsiate (1 wt % or 5 wt % dissolved in liquid paraffin) (2) Capsaicin (1 wt % or 5 wt % dispersed in liquid paraffin Liquid paraffin

[2] = Dissolution of sample in liquid paraffin; format: physicochemical; settings: 1 wt % and 5 wt %; evaluated in a dispersion state
[3] = system: hairless mouse (HR-1, female); assay: Increase in topical concentration of systemically administered trypan blue dye by topical capsiate; format: in vivo
Protocol: A hairless mouse (HR-1, female) was intraperitoneally injected with a trypan blue solution (0.4%, 300 μl). After injection, 100 μl of 5% capsiate (dissolved in an ethanol solution) was applied uniformly using a pipet chip to the right side of the back. As a control, 100 μl of ethanol alone was uniformly applied to the left side of the back by a similar method.

[4] = system: hairless mouse; assay: Inhibition of UVB-induced pigmentation: oral tocopherol acetate plus transdermal dihydrocapsiate; format: in vivo
Protocol: The synergistic effect of tocopherol acetate and dihydrocapsiate was confirmed using a pigmentation induction mouse based on the inhibition of pigmentation induced by ultraviolet beam (UVB).
(1) Before the start of ultraviolet beam (UVB) irradiation, tocopherol acetate (200 μl) as administered orally once a day for 3 days to a hairless mouse (12-week-old, female) using a gavage needle.
(2) After the 3-day oral administration in (1), the hairless mouse was irradiated with UVB (80-90 mJ/cm^2).
(3) Thirty minutes after the irradiation in (2), tocopherol acetate (200 μl) was administered orally to the hairless mouse using a gavage needle. Five minutes after the oral administration, 28 μl of 5 wt % dihydrocapsiate dissolved in 50 wt % ethyl alcohol was applied to the hairless mouse on the left side of the back.
Treatments (2) and (3) were performed 3 times a week (Monday, Wednesday and Friday) and treatment (3) alone was performed twice a week (Tuesday and Thursday). The skin on the back of the mouse after about 3 weeks from the start of the UV irradiation was visually evaluated.

[5] = system: hairless mouse; assay: Inhibition of UVB-induced pigmentation: oral cystine plus transdermal dihydrocapsiate; format: in vivo; settings: 5% dihydrocapsiate (50% aqueous ethanol) applied plus oral cystine 50 mg in 150 μl 0.5% CMC; about 3 and about 4 weeks; vs 50% aqueous ethanol application group
Protocol: An experiment similar to that in Example 2 was performed using cystine as an oral agent. In particular, 50 mg of cystine was dissolved in 150 μl of a 0.5% aqueous CMC (carboxymethylcellulose) solution and used as an oral administration sample, and 5% dihydrocapsiate (50% aqueous ethanol solution) was used as a dermal application sample. Ultraviolet beam (UVB) was utilized as an irradiation source without preliminary administration, and the synergistic effect afforded by the oral administration agent and the blood circulation promoter on the blackness suppressive effect on the pigmentation of the back of a mouse was confirmed according to the experiment schedule similar to that in Example 2.
Suppression of pigmentation induction in the dihydrocapsiate application group was visually evaluated.
Visual evaluation criteria • 0: No pigmentation • 1: Spots of pale pigmentation found in a part • 2: Spots of pale pigmentation found on the entire back • 3: Spots of pigmentation found on the entire back (partly deep pigmentation was found) • 4: Spots of deep pigmentation found on the entire back • 5: Deep pigmentation found on the entire back

[6] = 1 wt % in liquid paraffin, right ear, control liquid paraffin on left ear
[7] = 5 wt % in liquid paraffin, from 30 min onward after application

COc1cc(CNC(=O)CCCC/C=C/C(C)C)ccc1O [capsaicin, reference compound]
development of a red spot on auricle, visual evaluation [1, 6]: presence of a red spot
development of a red spot on auricle, visual evaluation [1, 7]: clear red spot
blood circulation promoting action, intensity and sustainability (conclusion) [1]: strong blood circulation promoting action and long sustainability
time over which red spot maintained the initial state ([1]; capsaicin, even at 1 wt %, auricle): > 2 h
dissolution in liquid paraffin [2]: did not dissolve completely

COc1cc(COC(=O)CCCC/C=C/C(C)C)ccc1O [capsiate]
pigmentation of blue dye in the vicinity of the auricle ([3]; 5% capsiate in ethanol applied to auricle, trypan blue i.p., 30-60 minutes after application): pigmentation of a blue dye was observed
skin pigmentation (infiltration) of blue dye at application site ([3]; 100 μl of 5% capsiate in ethanol on back, trypan blue i.p., 30 minutes after application): clear skin pigmentation (infiltration) of the blue dye was observed
skin pigmentation of blue dye derived from trypan blue at application site ([3]; 100 μl of 5% capsiate in ethanol on right side of back vs ethanol alone on left, trypan blue 0.4% 300 μl i.p., 15-20 minutes after application): confirmed only on the capsiate application side
development of a red spot on auricle, visual evaluation [1, 6]: no development of a red spot
development of a red spot on auricle, visual evaluation [1, 7]: clear red spot
blood circulation promoting action, intensity and sustainability (conclusion) [1]: mild sustainability and intensity
time until developed red spot completely disappeared ([1]; capsiate in liquid paraffin, auricle): about 2 hr

COc1cc(COC(=O)CCCCCCC(C)C)ccc1O [dihydrocapsiate]
UVB-induced pigmentation of back skin, visual evaluation, combined use ([4]; 28 μl of 5 wt % dihydrocapsiate on left side of back plus oral tocopherol acetate 200 μl, UVB 80-90 mJ/cm^2, about 3 weeks, vs non-application right side): less pigmentation; also recorded: can suppress induction of pigmentation by UVB
UVB-induced pigmentation of back skin, visual evaluation, dihydrocapsiate alone ([4]; dihydrocapsiate applied alone, no oral tocopherol acetate, UVB irradiation): UVB irradiation induced pigmentation in the application site; also recorded: failed to suppress induction of pigmentation
pigmentation suppressive effect after treatment is ceased ([4]; tocopherol acetate administration and dihydrocapsiate application ceased, UVB irradiation continued, dihydrocapsiate application site): disappears and induction of pigmentation begins
UVB-induced pigmentation induction, visual evaluation (score 0-5, FIG. 9) [5]: clearly suppressed

CC(=O)Oc1c(C)c(C)c2c(c1C)CCC(C)(CCC[C@H](C)CCC[C@H](C)CCCC(C)C)O2 (some centres unmarked) [tocopherol acetate, reference compound]
UVB-induced pigmentation of back skin, visual evaluation, tocopherol only control ([4]; oral tocopherol acetate 200 μl, solvent (50 wt % ethyl alcohol) applied instead of dihydrocapsiate, right vs left side of back): a clear difference was not observed; also recorded: failed to suppress induction of pigmentation

From patent US20080182894A1, “METHOD OF PROVIDING PREPARATION FOR TOPICAL APPLICATION AND SUPPLEMENT MEETING CLIENT'S NEEDS” (AJINOMOTO CO., INC., priority 2005, published 2008)
